{"source": "paper PMC4978154", "about": "“Phase I metabolites of mephedrone display biological activity as substrates at monoamine transporters” (British Journal of Pharmacology, 2016)", "key": {"[1]": {"system": "extracellular 5-HT in rat nucleus accumbens", "experiment": "Microdialysis in rat nucleus accumbens, dialysate 5-HT", "type": "in vivo", "settings": "for increase of dialysate 5-HT above baseline: rat nucleus accumbens", "method": "In vivo microdialysis procedures were carried out as previously described with minor modifications (Baumann et al., 2012). Briefly, male rats anaesthetized with sodium pentobarbital (60 mg·kg^−1, i.p.) received surgically implanted jugular catheters, and intracerebral guide cannulae aimed at the nucleus accumbens (AP +1.6 mm, ML −1.7 mm relative to bregma; −6.2 mm relative to dura) (Paxinos and Watson, 2007). After a 7–10 day recovery, each rat was placed into a chamber equipped with photobeams for the detection of motor parameters (TruScan, Harvard Apparatus, Holliston, MA, USA) and allowed to acclimatize overnight. Food and water were available ad libitum during the acclimatization period. On the following morning, catheters were attached to PE 50 extension tubes, and 0.5 × 2 mm microdialysis probes (CMA/12, Harvard Apparatus, Holliston, MA, USA) were inserted into the guide cannulae. Ringers' solution (150 mM NaCl, 2.8 mM KCl and 2.0 mM CaCl2) was perfused through the probes at 0.6 μL·min^−1 for 3 h. To commence experiments, dialysate samples ([…]) were collected at 20 min intervals, and drug or saline treatments were given after three baseline samples were obtained. Rats received two sequential i.v. injections of mephedrone or its metabolites, with 1 mg·kg^−1 administered at time zero, followed by 3 mg·kg^−1 60 min later. Saline was administered using the same schedule in a separate group of rats. Dialysate concentrations of dopamine and 5‐HT were quantified using HPLC coupled to electrochemical detection (Baumann et al., 2012). Chromatographic data were exported to an Empower software system (Waters, Inc., Milford, MA, USA) for peak identification, integration and analysis.\nCorrect probe placements were assessed after the microdialysis experiments. Rats were killed by CO2 narcosis then decapitated. Brains were quickly removed and immersion fixed in 10% paraformaldehyde for 1 week. Subsequently, brains were sectioned on a cryostat, and the location of each probe tip was verified by inspection of photographic images of the brain taken with a digital camera using the macro lens setting.\n(§1) Calculations were performed using Microsoft Excel® 2010 (Microsoft Corporation, Redmond, WA, USA) and GRAPHPAD PRISM 5.0. (GraphPad Software Inc., La Jolla, CA, USA). IC50 values for uptake inhibition and EC50 values for release were determined by nonlinear regression fits. Release data expressed as AUC were analysed by one‐way ANOVA followed by Bonferroni's multiple comparison test. Microdialysis and locomotor data were analysed by two‐way ANOVA (drug treatment × time) followed by Bonferroni's test. The effect of monensin treatment on basal efflux of tritiated substrate was analysed with the Mann–Whitney test. P values less than 0.05 (i.e. P < 0.05) were considered significant. The data and statistical analysis comply with the recommendations on experimental design and analysis in pharmacology (Curtis et al., 2015)."}, "hNET": {"molecular_target": "T1, hNET (Homo sapiens, UniProt P23975)", "T1 construct": "expressed in transfected cells", "T1 sequence (P23975 whole entry, the tested form may be a part, canonical isoform)": "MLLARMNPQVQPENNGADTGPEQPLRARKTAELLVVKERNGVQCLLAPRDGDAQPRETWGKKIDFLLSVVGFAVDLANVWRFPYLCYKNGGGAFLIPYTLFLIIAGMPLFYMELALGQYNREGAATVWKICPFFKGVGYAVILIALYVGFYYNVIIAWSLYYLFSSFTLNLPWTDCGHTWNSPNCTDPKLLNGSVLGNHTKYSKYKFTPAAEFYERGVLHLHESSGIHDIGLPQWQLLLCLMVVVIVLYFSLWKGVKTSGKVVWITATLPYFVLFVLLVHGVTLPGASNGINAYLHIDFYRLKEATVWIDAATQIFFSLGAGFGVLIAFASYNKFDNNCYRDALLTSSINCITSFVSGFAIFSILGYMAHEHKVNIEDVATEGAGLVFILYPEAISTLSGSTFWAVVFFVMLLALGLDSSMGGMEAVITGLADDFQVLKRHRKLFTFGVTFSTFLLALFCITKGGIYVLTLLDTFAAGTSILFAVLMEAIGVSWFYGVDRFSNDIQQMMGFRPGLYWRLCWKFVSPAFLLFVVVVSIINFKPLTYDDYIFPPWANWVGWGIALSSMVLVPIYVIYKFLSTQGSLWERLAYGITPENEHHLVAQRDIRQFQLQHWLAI", "experiment": "Transporter release (superfusion) assay in HEK293 cells expressing hNET", "type": "cell-based", "settings": "test drug 10 μM, monensin 10 μM; post hoc Bonferroni", "method": "The generation of HEK293 cells stably expressing the human isoforms of DAT (hDAT) and NET (hNET) was carried out as described previously (Scholze et al., 2002). For SERT, the human isoform (hSERT) was cloned in frame with yellow fluorescent protein (Schmid et al., 2001). The generation of a stable cell line was performed as described by Hilber and colleagues (Hilber et al., 2005). HEK293 cells were maintained in humidified atmosphere (5% CO2, 37°C) in DMEM, supplemented with 10% heat‐inactivated FBS and penicillin (100 u 100 mL^−1) and streptomycin (100 μg 100 mL^−1). Selection pressure was maintained by adding geneticin (50 μg·mL^−1) to the cell culture media.\nSuperfusion experiments were performed as described previously (Scholze et al., 2002). Briefly, HEK293 cells expressing the desired transporter were seeded at a density of 40 000 cells per well onto poly‐D‐lysine‐coated 5 mm glass cover slips in 96‐well plates 24 h prior to the experiment. Cells were preloaded with [^3H]‐MPP^+ (0.1 μM, hDAT and hNET) or [^3H]‐5‐HT (0.4 μM, hSERT) for 20 min at 37°C in a final volume of 100 μL per well. Subsequently, glass coverslips were transferred into small superfusion chambers (volume of 200 μL) and superfused with KHB at 25°C with a superfusion rate of 0.7 mL·min^−1 for 40 min to establish a stable basal efflux. After washout, the collection of 2‐min fractions was initiated. After the first three basal fractions, monensin (10 μM) or solvent was added for four fractions. […] Finally, the cells were lysed in 1% SDS to determine the total radioactivity. Radioactivity per fraction was assessed by a liquid scintillation counter and expressed as fractional release, that is, the percentage of released ^3H in relation to total ^3H present at the beginning of the fraction (Sitte et al., 2000). For analysis, release was expressed as AUC.\nas §1, with “(GraphPad Software Inc., La Jolla, CA, USA).” left out, “P values less than 0.05 (i.e. P < 0.05) were considered significant. The data and statistical analysis comply with the recommendations on experimental design and analysis in pharmacology (Curtis et al., 2015).” left out\nData from uptake inhibition assays cannot distinguish whether test drugs act as non‐transported inhibitors or transportable substrates, which evoke release (Scholze et al., 2000; Sitte et al., 2000; Baumann et al., 2013). […] As described previously, efflux of preloaded [^3H]‐MPP^+ or [^3H]‐5‐HT was monitored in the presence or absence of monensin (10 μM) (Scholze et al., 2000). […]"}, "[2]": {"settings": "3 mg·kg−1 i.v. (60 min after 1 mg·kg−1)"}}, "data": [{"smiles": "CNC(C)C(=O)c1ccc(CO)cc1.Cl", "note": "(centres unmarked) [4‐OH‐mephedrone, 1‐(4‐(hydroxymethyl)phenyl)‐2‐(methylamino)propan‐1‐one hydrochloride]", "values": [{"measurement": "effect on extracellular neurotransmitters in the brain (5-HT)", "setting": "[1]; systemic administration, 1 and 3 mg·kg−1 i.v., rat", "result": "no significant effect"}, {"measurement": "enhancement by monensin of drug-evoked [3H]-MPP+ release at hNET (AUC)", "setting": "hNET", "result": "significant"}]}, {"smiles": "CNC(C)C(=O)c1ccc(C)cc1.Cl", "note": "(centres unmarked) [Mephedrone, 2‐Methylamino‐1‐(p‐tolyl)propan‐1‐one hydrochloride]", "values": [{"measurement": "increase of dialysate 5-HT above baseline", "setting": "[1]; 1 mg·kg−1 i.v.", "result": 15, "unit": "fold"}, {"measurement": "increase of dialysate 5-HT above baseline", "setting": "[1]; [2]", "result": 25, "unit": "fold"}, {"measurement": "enhancement by monensin of drug-evoked [3H]-MPP+ release at hNET (AUC)", "setting": "hNET", "result": "significant"}]}, {"smiles": "Cc1ccc(C(=O)C(C)N)cc1.Cl", "note": "(centres unmarked) [Nor‐mephedrone, 2‐amino‐1‐(p‐tolyl)propan‐1‐one hydrochloride]", "values": [{"measurement": "increase of dialysate 5-HT above baseline", "setting": "[1]; 1 mg·kg−1 i.v.", "result": 15, "unit": "fold"}, {"measurement": "increase of dialysate 5-HT above baseline", "setting": "[1]; [2]", "result": 25, "unit": "fold"}, {"measurement": "enhancement by monensin of drug-evoked [3H]-MPP+ release at hNET (AUC)", "setting": "hNET", "result": "significant"}]}]}
